{"source": "patent US20220112538A1", "about": "“SPECTROSCOPIC METHODS, REAGENTS AND SYSTEMS TO DETECT, IDENTIFY, AND CHARACTERIZE BACTERIA FOR ANTIMICROBIAL SUSCEPTIBLITY” (priority 2020, published 2022)", "assay_type_in_all_cases": "cell-based", "key": {"[1]": {"test_system": "wild type strain of S. aureus", "assay": "MIC from Rayleigh scattering growth in Cation Adjusted Mueller Hinton Broth, corrected for pathogen concentration", "details": "for MIC: Staphylococcus aureus", "procedure": "FIG. 21A: Variation of Rayleigh scattering with time for 7 samples containing Cation Adjusted Mueller Hinton Broth (CAMHB), an unknown concentration of a test bacteria (which was identified as S. aureus due to pigment production), and loaded onto 96 well plates at 7 concentrations of the candidate antibiotic Vancomycin, with concentrations starting at 1.25 μg/mL (for Cell 7) and decreasing in steps of 2× for each well down to Cell 1. The data is collected for 8 hours. FIG. 21B: Variation of the fitting parameter a, in the fit equation y=a/[1+exp(−(t−b)/c)], with a non-linear best fit routine is applied to fit this equation to the data depicted on the left. The fitting parameter is plotted against cell#. From this variation, it is estimated that Rayleigh growth becomes negligible at an extrapolated cell # of 4.8, which corresponds to a Vancomycin concentration of 0.19 μg/mL.\nAs we observe experimentally, the antimicrobial susceptibility metric MIC is a function of pathogen concentration, as depicted in FIG. 19. Thus, estimates for MIC obtained from a test sample that is at a pathogen concentration lower than the concentration of 2×10^8 CFU/mL (or 0.5 McFarland) specified in the CLSI M100 standard will need to be corrected for this variation to maximize concordance between a rapid test MIC and the CLSI standard. Empirically, we find that the slope of the traces depicted in FIG. 19 scales with the absolute magnitude of the estimated MIC, as depicted in FIG. 20. Thus, an algorithm to correct the MIC for pathogen concentration is to use the empirical observed scaling relationship depicted in FIG. 20, along with the pathogen concentration estimated from the methods described in FIG. 18. […] Separately, the time to detection is measured as 161 minutes, and this returns an S. aureus concentration of 7.5×10^6 CFU/mL.\nWe illustrate this process with one example of a wild type strain of S. aureus tested against Vancomycin in Cation Adjusted Mueller Hinton Broth (CAMHB Himedia labs M1657). With CAMHB, the viability of the bacteria is estimated by plotting the Rayleigh scattering factor versus time, and fitting this to an exponential growth function a/[1+exp(−(t−b)/c)], as illustrated in FIG. 21. The growth factor a is then plotted against antibiotic concentration, and from this profile, the concentration at which a approaches zero is estimated as the nominal MIC at the pathogen concentration. Separately, the pathogen concentration is estimated and the MIC is corrected for the pathogen concentration. […] The CLSI M100 breakpoints for Staphylococcus against Vancomycin are >16 μg/mL for resistant and <2 μg/mL for susceptible. Accordingly, this strain of S. aureus is reported as being susceptible to vancomycin, […]"}, "[2]": {"test_system": "S. aureus (clinical sample)", "assay": "MIC from time required for S. aureus pigment detection versus antibiotic concentration", "procedure": "FIG. 15: Variation of the time required for pigment detection versus antibiotic concentration for tetracycline plotted against antibiotic concentration. The pathogen concentration is estimated at 8.8×10^6 CFU/mL. For antibiotic concentrations of 2 μg/mL, the time to detection is increased by a factor of >2 compared to the baseline value of about 150 minutes for this pathogen concentration. We set this 2× increase as the criterion for MIC˜other criterion can also be used, but will require a different set of corrections for pathogen concentration. With the MIC at the test pathogen concentration, we apply the correction described above, and find that the rapid test MIC correlates with the CLSI M100 MIC, as depicted in FIG. 23.\nThe second factor that complicates a rapid test for MIC is the presence of multiple pathogens in a polymicrobial sample. For example, a polymicrobial sample that is dominated by Enterococcus but in which the S. aureus is the pathogen of concern, the MIC estimated by examining the growth of Rayleigh scattering can be erroneous because of an incorrect correction for pathogen concentration, and because the Rayleigh scattering is dominated by Enterococcus growth. This issue can be mitigated by one of two ways: (a) by flagging all polymicrobial samples & (b) by focusing the response on a signal associated with the pathogen of interest. For example, using the methods described in Example 5, we detect the S. aureus specific pigments, and characterize the time required for the detection of these pigments as a function of antibiotic concentration. This is illustrated in FIG. 15 for a clinical sample containing […], and the antibiotic tetracycline. From this variation, the MIC is estimated as the minimum antibiotic concentration required to increase the time to detection metric by 2× compared to the time to detection metric observed for the media without any antibiotic (which was 150 minutes in this example). And so, the MIC in this example is log (concentration)=0.3, or a concentration of 2 μg/mL. The concentration of S. aureus estimated from the detection time of 150 minutes (and the methods described in Example 8) is 8.8×10^6 CFU/mL. […] This clinical sample also contained Enterococcus (which was evident after isolating individual colonies on a blood Agar plate), but the method described here focuses the MIC metric on the response of S. aureus."}, "E. coli 25922": {"test_system": "E. coli 25922", "assay": "Minimum inhibitory concentration from phenol red 560 nm absorbance peak height", "details": "1000 CFU/mL E. coli; extrapolated from a linear fit to phenol red peak height", "excerpt": "(§1) This example characterizes the response of E. coli 25922 to Gentamicin. Top: The curves illustrate the response of a test solution that includes 1000 CFU/mL E. coli, the Phenol-Red based reagent described in herein, and Gentamicin GM present at concentrations that are depicted in the legend. The Y axis depicts the height of the phenol red peak at 560 nm, normalized to the starting value.\nas §1, with “described” for “described in”, “value. Bottom: The normalized peak height at 300 minutes, plotted as a function of GM concentration.” for “value.”\nAntimicrobial susceptibility response was characterized. The metabolic activity of the causative pathogen can be suppressed by an effective antimicrobial. Thus, when a candidate antibiotic, present at a test concentration, is combined with the teachings described herein, then we can deduce the effect of that antibiotic on the microorganism. If we combine a series of antibiotic concentrations, then we can deduce the minimum inhibitory concentration. […]"}}, "note": "Where two headings read alike, the source gives them in different places.", "data": [{"compound": "CN[C@H](CC(C)C)C(=O)N[C@H]1C(=O)N[C@@H](CC(N)=O)C(=O)N[C@H]2C(=O)N[C@H]3C(=O)N[C@H](C(=O)N[C@H](C(=O)O)c4cc(O)cc(O)c4-c4cc3ccc4O)[C@H](O)c3ccc(c(Cl)c3)Oc3cc2cc(c3O[C@@H]2O[C@H](CO)[C@@H](O)[C@H](O)[C@H]2O[C@H]2C[C@](C)(N)[C@H](O)[C@H](C)O2)Oc2ccc(cc2Cl)[C@H]1O", "note": "[Vancomycin]", "values": [{"measurement": "MIC estimated at the test pathogen concentration (concentration at which Rayleigh growth becomes negligible)", "setting": "[1]; CAMHB, 8 hours, extrapolated cell # 4.8, S. aureus 7.5×10^6 CFU/mL", "value": 0.19, "unit": "µg/mL"}, {"measurement": "MIC", "setting": "[1]; 8 h, read-out: MIC estimated at the test pathogen concentration (concentration at which Rayleigh growth becomes negligible), CAMHB, 8 hours, extrapolated cell # 4.8, S. aureus 7.5×10^6 CFU/mL", "value": 0.192, "unit": "µg/mL"}, {"measurement": "MIC", "setting": "[1]; read-out: CLSI M100 MIC at 0.5 McFarland, estimated by correction for pathogen concentration, corrected from 7.5×10^6 CFU/mL to 0.5 McFarland", "value": 0.867, "unit": "µg/mL"}, {"measurement": "resistant or susceptible status by comparison with CLSI M100 breakpoints", "setting": "[1]; breakpoints >16 μg/mL resistant, <2 μg/mL susceptible", "value": "susceptible"}]}, {"compound": "CN(C)[C@@H]1C(O)=C(C(N)=O)C(=O)[C@@]2(O)C(O)=C3C(=O)c4c(O)cccc4[C@@](C)(O)[C@H]3C[C@@H]12", "note": "[tetracycline]", "values": [{"measurement": "MIC (minimum concentration that increases time to detection by 2×) at the test pathogen concentration", "setting": "[2]; S. aureus 8.8×10^6 CFU/mL", "value": 2, "unit": "µg/mL"}, {"measurement": "MIC as log (concentration)", "setting": "[2]; S. aureus 8.8×10^6 CFU/mL", "value": 0.3}, {"measurement": "MIC", "setting": "[2]; Staphylococcus aureus, corrected from 8.8×10^6 CFU/mL, read-out: MIC at 0.5 McFarland, estimated by correction for pathogen concentration", "value": 2.51, "unit": "µg/mL"}, {"measurement": "increase of time to pigment detection compared to baseline (factor)", "setting": "[2]; antibiotic 2 μg/mL, baseline about 150 minutes, pathogen 8.8×10^6 CFU/mL", "value": "> 2"}]}, {"compound": "Gentamicin", "values": [{"measurement": "GM concentration at which the 560 nm peak height does not decrease from the starting value (minimum inhibitory concentration)", "setting": "E. coli 25922", "value": 2.03, "unit": "µg/mL"}]}]}
